# Data published in publication PMC10893631, “Receptor-based pharmacophore modeling, molecular docking, synthesis and biological evaluation of novel VEGFR-2, FGFR-1, and BRAF multi-kinase inhibitors” (BMC Chemistry, 2024).
# Like-named read-outs stand apart in the source and are kept apart here.
# How the values were obtained:
# Format in all cases: cell-based, human
# [1] = system: NCI panel of 60 tumor cell lines; test: NCI SRB growth inhibition, whole panel mean (single dose 10 µM / five-dose); conditions: Homo sapiens
# Procedure: Screening of cytotoxic activity against a panel of sixty human tumor cell lines The selected compounds by NCI were evaluated for their anticancer activity in a two- stage process. […] Then, the output from the single dose screen is reported as a mean graph. […] Assay protocol. […] For a typical screening experiment, cells are inoculated into 96 well microtiter plates in 100 µL at plating densities ranging from 5000 to 40,000 cells/well depending on the doubling time of individual cell lines. […] After 24 h, two plates of each cell line are fixed in situ with TCA, to represent a measurement of the cell population for each cell line at the time of drug addition (Tz). The experimental drugs are solubilized in dimethyl sulfoxide at 400-fold the desired final maximum test concentration and stored frozen prior to use. At the time of drug addition, an aliquot of frozen concentrate is thawed and diluted to twice the desired final maximum test concentration with complete medium containing 50 µg/mL gentamicin. Additional four, 10-fold or ½ log serial dilutions are made to provide a total of five drug concentrations plus control. Aliquots of 100 mL of these different drug dilutions are added to the appropriate microtiter wells already containing […] of medium, resulting in the required final drug concentrations. […] For adherent cells, the assay is terminated by the addition of cold TCA. […] The supernatant is discarded, and the plates are washed five times with tap water and air dried. Sulforhodamine B (SRB) solution ([…]) at 0.4% (w/v) in 1% acetic acid is added to each well, and plates are incubated for 10 min at room temperature. After staining, unbound dye is removed by washing five times with 1% acetic acid and the plates are air dried. […] Using the seven absorbance measurements [time zero, (Tz), control growth, (C), and test growth in the presence of drug at the five concentration levels (Ti)], the percentage growth is calculated at each of the drug concentrations levels. Percentage growth inhibition is calculated as: [(Ti Tz)/(C–Tz)] x 100 for concentrations for which Ti>/=Tz and [(Ti-Tz)/Tz] x 100 for concentrations for which Ti < Tz. Three dose response parameters are calculated for each experimental agent. […] The drug concentration resulting in total growth inhibition (TGI) is calculated from Ti = Tz. […] Values are calculated for each of these three parameters if the level of activity is reached; however, if the effect is not reached or is exceeded, the value for that parameter is expressed as greater or less than the maximum or minimum concentration tested.
# [2] = system: U251; test: NCI SRB growth inhibition (single dose 10 µM / five-dose); conditions: Homo sapiens, U-251; for inhibition at 10 µM: U251 (CNS cancer), read-out: GI%
# Method in brief: (§1)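 Percent growth relative to untreated control and time-zero cell mass, determined by SRB. Five drug levels (10-fold or half-log steps) plus control; time-zero plates fixed 24 h after seeding.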
# [3] = system: HOP-62; test: as above; conditions: Homo sapiens; HOP-62, Non-small cell lung cancer; five-dose
# Method in brief: as §1
# [4] = system: T-47D; test: as above; conditions: Homo sapiens, T47D; T-47D, Breast cancer; five-dose
# Method in brief: as §1
# [5] = system: NCI-H522; test: as above; conditions: Homo sapiens; for inhibition at 10 µM: NCI-H522 (Non-small cell lung cancer), read-out: GI%
# Method in brief: as §1
# [6] = system: HCT-15; test: as above; conditions: Homo sapiens; for inhibition at 10 µM: HCT-15 (Colon cancer), read-out: GI%
# Method in brief: as §1
# [7] = system: OVCAR-4; test: as above; conditions: Homo sapiens; for inhibition at 10 µM: OVCAR-4 (Ovarian cancer), read-out: GI%
# Method in brief: as §1
# [8] = system: OVCAR-3; test: as above; conditions: Homo sapiens; for inhibition at 10 µM: OVCAR-3 (Ovarian cancer), read-out: GI%
# Method in brief: as §1
# [9] = system: MDA-MB-435; test: as above; conditions: Homo sapiens; for inhibition at 10 µM: MDA-MB-435 (Melanoma), read-out: GI%
# Method in brief: as §1
# [10] = system: SF-268; test: as above; conditions: Homo sapiens; for inhibition at 10 µM: SF-268 (CNS cancer), read-out: GI%
# Method in brief: as §1
# [11] = system: COLO 205; test: as above; conditions: Homo sapiens; COLO 205, Colon cancer; five-dose
# Method in brief: as §1
# [12] = system: NCI-H23; test: as above; conditions: Homo sapiens; for inhibition at 10 µM: NCI-H23 (Non-small cell lung cancer), read-out: GI%
# Method in brief: as §1
# [13] = system: UO-31; test: as above; conditions: Homo sapiens; for inhibition at 10 µM: UO-31 (Renal cancer), read-out: GI%
# Method in brief: as §1
# [14] = system: HL-60(TB); test: as above; conditions: Homo sapiens; for inhibition at 10 µM: HL-60(TB) (Leukemia), read-out: GI%
# Method in brief: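 Seeding varied with cell doubling time (5000–40,000 cells/well). Dilutions were 10-fold or ½ log, five levels in total. Sulforhodamine B staining (0.4% w/v, 10 min, room temperature) of TCA-fixed cells measured growth.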
# [15] = system: SN12C; test: as above; conditions: Homo sapiens; for inhibition at 10 µM: SN12C (Renal cancer), read-out: GI%
# Method in brief: as §1
# [16] = system: UACC-62; test: as above; conditions: Homo sapiens; for inhibition at 10 µM: UACC-62 (Melanoma), read-out: GI%
# Method in brief: as §1
# [17] = system: IGROV1; test: as above; conditions: Homo sapiens, IGROV-1; for inhibition at 10 µM: IGROV1 (Ovarian cancer), read-out: GI%
# Method in brief: as §1
# [18] = system: SK-OV-3; test: as above; conditions: Homo sapiens; SK-OV-3, Ovarian cancer; five-dose
# Method in brief: as §1
# [19] = system: NCI-H322M; test: as above; conditions: Homo sapiens; for inhibition at 10 µM: NCI-H322M (Non-small cell lung cancer), read-out: GI%
# Method in brief: as §1
# [20] = system: OVCAR-8; test: as above; conditions: Homo sapiens; for inhibition at 10 µM: OVCAR-8 (Ovarian cancer), read-out: GI%
# Method in brief: as §1
# [21] = system: NCI-H460; test: as above; conditions: Homo sapiens; for inhibition at 10 µM: NCI-H460 (Non-small cell lung cancer), read-out: GI%
# Method in brief: as §1
# [22] = system: PC-3; test: as above; conditions: Homo sapiens; for inhibition at 10 µM: PC-3 (Prostate cancer), read-out: GI%
# Method in brief: as §1
# [23] = system: KM12; test: as above; conditions: Homo sapiens; for inhibition at 10 µM: KM12 (Colon cancer), read-out: GI%
# Method in brief: as §1
# [24] = mean over NCI 60 cell lines, > 100% = lethal effect, read-out: mean growth inhibition % (GI%)
# [25] = mean over NCI panel of 60 tumor cell lines, read-out: Mean growth inhibition %
smiles,measurement,setting,value
"COc1cccc(C=NNC(=O)c2ccc3[nH]c(-c4ccccc4)nc3c2)c1O [8d, N'-(2-hydroxy-3-methoxybenzylidene)-2-phenyl-1H-benzo[d]imidazole-5-carbohydrazide]",inhibition at 10 µM,[1]; [24],92.5%
same,GI50,"[1]; mean over NCI cancer cell lines, five-dose",2620 nM
same,inhibition at 10 µM,[1]; [25],92.5%
same,inhibition at 10 µM,[2],99.9%
same,GI50,"[2]; U251, CNS cancer, five-dose",760 nM
same,GI50,[3],1650 nM
same,GI50,[4],1930 nM
same,inhibition at 10 µM,[5],> 100%
same,GI50,"[5]; NCI-H522, Non-small cell lung cancer, five-dose",1970 nM
same,inhibition at 10 µM,[6],71.6%
same,GI50,"[6]; HCT-15, Colon cancer, five-dose",2070 nM
same,inhibition at 10 µM,[7],> 100%
same,GI50,"[7]; OVCAR-4, Ovarian cancer, five-dose",1850 nM
same,inhibition at 10 µM,[8],> 100%
same,GI50,"[8]; OVCAR-3, Ovarian cancer, five-dose",420 nM
same,inhibition at 10 µM,[9],74.6%
same,GI50,"[9]; MDA-MB-435, Melanoma, five-dose",4690 nM
same,inhibition at 10 µM,[10],99%
same,GI50,"[10]; SF-268, CNS cancer, five-dose",1760 nM
same,GI50,[11],2340 nM
same,inhibition at 10 µM,[12],> 100%
same,GI50,"[12]; NCI-H23, Non-small cell lung cancer, five-dose",1870 nM
same,inhibition at 10 µM,[13],98.5%
same,GI50,"[13]; UO-31, Renal cancer, five-dose",2340 nM
same,inhibition at 10 µM,[14],90%
same,GI50,"[14]; HL-60(TB), Leukemia, five-dose",2420 nM
same,inhibition at 10 µM,[15],91.5%
same,GI50,"[15]; SN12C, Renal cancer, five-dose",2080 nM
same,inhibition at 10 µM,[16],99.5%
same,GI50,"[16]; UACC-62, Melanoma, five-dose",1220 nM
same,inhibition at 10 µM,[17],79.9%
same,GI50,"[17]; IGROV1, Ovarian cancer, five-dose",2340 nM
same,GI50,[18],2560 nM
same,inhibition at 10 µM,[19],88%
same,GI50,"[19]; NCI-H322M, Non-small cell lung cancer, five-dose",1410 nM
same,inhibition at 10 µM,[20],> 100%
same,GI50,"[20]; OVCAR-8, Ovarian cancer, five-dose",1620 nM
same,inhibition at 10 µM,[21],86.4%
same,GI50,"[21]; NCI-H460, Non-small cell lung cancer, five-dose",2630 nM
same,inhibition at 10 µM,[22],82.2%
same,GI50,"[22]; PC-3, Prostate cancer, five-dose",2710 nM
same,inhibition at 10 µM,[23],> 100%
same,GI50,"[23]; KM12, Colon cancer, five-dose",2580 nM
"COc1ccc(OC)c(C=NNC(=O)c2ccc3[nH]c(-c4ccccc4)nc3c2)c1 [8f, N'-(2,5-Dimethoxybenzylidene)-2-phenyl-1H-benzo[d]imidazole-5-carbohydrazide]",inhibition at 10 µM,[1]; [24],33.7%
same,inhibition at 10 µM,[1]; [25],33.7%
same,inhibition at 10 µM,[2],20.7%
same,inhibition at 10 µM,[5],37.8%
same,inhibition at 10 µM,[6],65.2%
same,inhibition at 10 µM,[7],37.8%
same,inhibition at 10 µM,[8],12.5%
same,inhibition at 10 µM,[9],73.7%
same,inhibition at 10 µM,[10],36.6%
same,inhibition at 10 µM,[12],46.7%
same,inhibition at 10 µM,[13],54%
same,inhibition at 10 µM,[14],36.3%
same,inhibition at 10 µM,[15],35.2%
same,inhibition at 10 µM,[16],35.5%
same,inhibition at 10 µM,[17],11%
same,inhibition at 10 µM,[19],12.3%
same,inhibition at 10 µM,[20],52.6%
same,inhibition at 10 µM,[21],15.8%
same,inhibition at 10 µM,[22],55.5%
same,inhibition at 10 µM,[23],30.5%
